Test results published in article PMC6120666 (The EMBO Journal, 2018).

Columns and labels:
Test in all cases: Drug affinity chromatography with c-ponatinib and LC-MS/MS (ponatinib interactome)
Format in all cases: binding
[1] = target: T1, proteins of U2OS cell lysate (Homo sapiens, UniProt P20674); conditions: captured protein COX5A, Rank 122
T1 construct: Proteins enriched by c-ponatinib from U2OS cell lysate; endogenous in cells; host or cells: U2OS cell lysate
Outline: (§1)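 Proteins were identified by nano-UPLC–MS/MS after elution with formic acid and trypsin digestion. They were captured from U2OS lysate (2 mg protein per pulldown, NP-40 buffer) on amine-coupled NHS beads during a 2 h incubation at 4 °C.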

[2] = target: T2, proteins of U2OS cell lysate (Homo sapiens, UniProt Q9UNM6); conditions: captured protein PSMD13, Rank 204
T2 construct: Proteins enriched by c-ponatinib from U2OS cell lysate; endogenous in cells; host or cells: U2OS cell lysate
Outline: as §1

[3] = target: T3, proteins of U2OS cell lysate (Homo sapiens, UniProt Q9UHX1); conditions: captured protein PUF60, Rank 203
T3 construct: Proteins enriched by c-ponatinib from U2OS cell lysate; endogenous in cells; host or cells: U2OS cell lysate
Outline: as §1

[4] = target: T4, proteins of U2OS cell lysate (Homo sapiens, UniProt P51572); conditions: BCAP31, B-cell receptor-associated protein 31
T4 construct: Proteins enriched by c-ponatinib from U2OS cell lysate; endogenous in cells; host or cells: U2OS cell lysate
Outline: as §1

[5] = target: T5, proteins of U2OS cell lysate (Homo sapiens, UniProt O94906); conditions: PRPF6, Pre-mRNA-processing factor 6
T5 construct: Proteins enriched by c-ponatinib from U2OS cell lysate; endogenous in cells; host or cells: U2OS cell lysate
Outline: as §1

[6] = target: T6, proteins of U2OS cell lysate (Homo sapiens, UniProt Q15750); conditions: TAB1, TGF-beta-activated kinase 1 and MAP3K7-binding protein 1
T6 construct: Proteins enriched by c-ponatinib from U2OS cell lysate; endogenous in cells; host or cells: U2OS cell lysate
Outline: as §1

[7] = target: T7, proteins of U2OS cell lysate (Homo sapiens, UniProt Q13418); conditions: ILK, Integrin-linked protein kinase
T7 construct: Proteins enriched by c-ponatinib from U2OS cell lysate; endogenous in cells; host or cells: U2OS cell lysate
Outline: as §1

[8] = target: T8, proteins of U2OS cell lysate (Homo sapiens, UniProt P68363); conditions: TUBA1B;TUBA1A, Tubulin alpha-1B chain
T8 construct: Proteins enriched by c-ponatinib from U2OS cell lysate; endogenous in cells; host or cells: U2OS cell lysate
Outline: as §1

[9] = target: T9, proteins of U2OS cell lysate (Homo sapiens, UniProt Q0ZGT2); conditions: NEXN, Nexilin
T9 construct: Proteins enriched by c-ponatinib from U2OS cell lysate; endogenous in cells; host or cells: U2OS cell lysate
Outline: as §1

[10] = target: T10, proteins of U2OS cell lysate (Homo sapiens, UniProt Q69YQ0); conditions: SPECC1L, Cytospin-A
T10 construct: Proteins enriched by c-ponatinib from U2OS cell lysate; endogenous in cells; host or cells: U2OS cell lysate
Outline: as §1

[11] = target: T11, proteins of U2OS cell lysate (Homo sapiens, UniProt Q00536); conditions: CDK16, Cyclin-dependent kinase 16
T11 construct: Proteins enriched by c-ponatinib from U2OS cell lysate; endogenous in cells; host or cells: U2OS cell lysate
Outline: as §1

[12] = target: T12, proteins of U2OS cell lysate (Homo sapiens, UniProt P29692); conditions: EEF1D, Elongation factor 1-delta
T12 construct: Proteins enriched by c-ponatinib from U2OS cell lysate; endogenous in cells; host or cells: U2OS cell lysate
Outline: as §1

[13] = target: T13, proteins of U2OS cell lysate (Homo sapiens, UniProt Q8N3V7); conditions: SYNPO, Synaptopodin
T13 construct: Proteins enriched by c-ponatinib from U2OS cell lysate; endogenous in cells; host or cells: U2OS cell lysate
Outline: as §1

[14] = target: T14, proteins of U2OS cell lysate (Homo sapiens, UniProt P84090); conditions: ERH, Enhancer of rudimentary homolog
T14 construct: Proteins enriched by c-ponatinib from U2OS cell lysate; endogenous in cells; host or cells: U2OS cell lysate
Outline: as §1

[15] = target: T15, proteins of U2OS cell lysate (Homo sapiens, UniProt P49792); conditions: RANBP2, E3 SUMO-protein ligase RanBP2
T15 construct: Proteins enriched by c-ponatinib from U2OS cell lysate; endogenous in cells; host or cells: U2OS cell lysate
Outline: as §1

[16] = target: T16, proteins of U2OS cell lysate (Homo sapiens, UniProt P62854); conditions: RPS26;RPS26P11, 40S ribosomal protein S26
T16 construct: Proteins enriched by c-ponatinib from U2OS cell lysate; endogenous in cells; host or cells: U2OS cell lysate
Outline: as §1

[17] = target: T17, proteins of U2OS cell lysate (Homo sapiens, UniProt P28070); conditions: PSMB4, Proteasome subunit beta type-4
T17 construct: Proteins enriched by c-ponatinib from U2OS cell lysate; endogenous in cells; host or cells: U2OS cell lysate
Outline: as §1

[18] = target: T18, proteins of U2OS cell lysate (Homo sapiens, UniProt O43318); conditions: MAP3K7;DKFZp586F0420, Mitogen-activated protein kinase kinase kinase 7
T18 construct: Proteins enriched by c-ponatinib from U2OS cell lysate; endogenous in cells; host or cells: U2OS cell lysate
Outline: as §1

[19] = target: T19, proteins of U2OS cell lysate (Homo sapiens, UniProt P16083); conditions: NQO2, Ribosyldihydronicotinamide dehydrogenase [quinone]
T19 construct: Proteins enriched by c-ponatinib from U2OS cell lysate; endogenous in cells; host or cells: U2OS cell lysate
Outline: as §1

T18 sequence (O43318 whole entry): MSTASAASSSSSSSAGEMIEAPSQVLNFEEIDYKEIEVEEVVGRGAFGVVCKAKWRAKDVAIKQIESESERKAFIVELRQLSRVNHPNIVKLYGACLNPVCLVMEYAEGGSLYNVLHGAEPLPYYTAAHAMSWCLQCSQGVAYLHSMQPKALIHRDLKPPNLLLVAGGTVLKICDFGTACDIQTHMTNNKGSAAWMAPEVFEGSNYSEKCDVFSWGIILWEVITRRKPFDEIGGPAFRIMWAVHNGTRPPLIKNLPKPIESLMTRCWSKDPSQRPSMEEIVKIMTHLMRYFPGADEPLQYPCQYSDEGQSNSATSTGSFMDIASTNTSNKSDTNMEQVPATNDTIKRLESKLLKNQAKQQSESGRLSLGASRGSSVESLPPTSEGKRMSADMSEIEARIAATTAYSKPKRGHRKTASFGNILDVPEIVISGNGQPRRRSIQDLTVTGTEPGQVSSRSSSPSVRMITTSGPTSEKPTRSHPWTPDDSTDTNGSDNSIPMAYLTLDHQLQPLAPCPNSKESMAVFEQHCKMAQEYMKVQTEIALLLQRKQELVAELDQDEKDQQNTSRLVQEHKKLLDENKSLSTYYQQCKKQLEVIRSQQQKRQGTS
T13 sequence (Q8N3V7 whole entry): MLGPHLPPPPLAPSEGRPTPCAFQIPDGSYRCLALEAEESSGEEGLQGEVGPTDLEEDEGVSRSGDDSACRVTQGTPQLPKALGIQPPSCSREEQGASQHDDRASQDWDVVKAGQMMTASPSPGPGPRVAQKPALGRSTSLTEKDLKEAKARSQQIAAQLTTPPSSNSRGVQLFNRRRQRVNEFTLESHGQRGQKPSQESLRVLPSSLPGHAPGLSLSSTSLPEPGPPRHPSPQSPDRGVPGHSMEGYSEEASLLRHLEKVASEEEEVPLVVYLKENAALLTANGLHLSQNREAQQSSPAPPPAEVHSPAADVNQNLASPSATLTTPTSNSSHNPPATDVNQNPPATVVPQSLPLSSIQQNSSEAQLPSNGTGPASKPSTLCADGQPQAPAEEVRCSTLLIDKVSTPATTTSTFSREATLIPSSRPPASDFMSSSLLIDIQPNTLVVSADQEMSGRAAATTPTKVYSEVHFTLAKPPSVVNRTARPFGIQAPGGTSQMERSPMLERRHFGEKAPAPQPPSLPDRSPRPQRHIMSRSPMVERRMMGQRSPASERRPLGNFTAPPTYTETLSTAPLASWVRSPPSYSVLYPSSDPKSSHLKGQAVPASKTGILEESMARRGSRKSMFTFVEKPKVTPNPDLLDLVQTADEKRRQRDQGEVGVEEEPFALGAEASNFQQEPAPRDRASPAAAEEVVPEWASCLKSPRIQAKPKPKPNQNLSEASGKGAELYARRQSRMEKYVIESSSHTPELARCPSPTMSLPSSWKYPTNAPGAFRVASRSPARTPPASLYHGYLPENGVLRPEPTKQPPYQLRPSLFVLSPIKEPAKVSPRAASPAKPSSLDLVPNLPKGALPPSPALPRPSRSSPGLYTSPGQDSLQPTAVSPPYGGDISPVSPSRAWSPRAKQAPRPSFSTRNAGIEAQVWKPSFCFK
T5 sequence (O94906 whole entry): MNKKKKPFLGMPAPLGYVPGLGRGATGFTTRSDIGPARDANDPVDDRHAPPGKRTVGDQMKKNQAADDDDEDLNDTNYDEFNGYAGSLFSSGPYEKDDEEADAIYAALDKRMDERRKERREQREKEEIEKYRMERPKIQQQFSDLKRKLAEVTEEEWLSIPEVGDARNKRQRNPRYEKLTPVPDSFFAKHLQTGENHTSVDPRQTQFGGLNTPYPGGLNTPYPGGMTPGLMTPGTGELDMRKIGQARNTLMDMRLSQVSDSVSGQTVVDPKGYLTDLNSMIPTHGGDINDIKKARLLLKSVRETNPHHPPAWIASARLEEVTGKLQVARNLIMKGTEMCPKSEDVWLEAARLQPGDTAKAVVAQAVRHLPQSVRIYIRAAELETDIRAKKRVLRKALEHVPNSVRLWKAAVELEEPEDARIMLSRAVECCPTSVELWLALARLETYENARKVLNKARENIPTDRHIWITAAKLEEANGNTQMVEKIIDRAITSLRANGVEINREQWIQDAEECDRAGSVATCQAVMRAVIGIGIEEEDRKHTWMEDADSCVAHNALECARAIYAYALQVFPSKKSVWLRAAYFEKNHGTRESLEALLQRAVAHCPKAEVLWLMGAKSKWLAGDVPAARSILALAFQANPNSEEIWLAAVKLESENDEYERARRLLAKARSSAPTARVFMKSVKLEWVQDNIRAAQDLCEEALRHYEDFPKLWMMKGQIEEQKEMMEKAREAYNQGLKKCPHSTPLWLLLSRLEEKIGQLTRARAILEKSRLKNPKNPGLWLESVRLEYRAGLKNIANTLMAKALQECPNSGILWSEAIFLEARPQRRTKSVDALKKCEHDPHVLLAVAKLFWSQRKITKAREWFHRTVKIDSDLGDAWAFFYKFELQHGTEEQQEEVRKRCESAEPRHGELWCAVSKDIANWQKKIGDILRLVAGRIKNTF
T9 sequence (Q0ZGT2 whole entry): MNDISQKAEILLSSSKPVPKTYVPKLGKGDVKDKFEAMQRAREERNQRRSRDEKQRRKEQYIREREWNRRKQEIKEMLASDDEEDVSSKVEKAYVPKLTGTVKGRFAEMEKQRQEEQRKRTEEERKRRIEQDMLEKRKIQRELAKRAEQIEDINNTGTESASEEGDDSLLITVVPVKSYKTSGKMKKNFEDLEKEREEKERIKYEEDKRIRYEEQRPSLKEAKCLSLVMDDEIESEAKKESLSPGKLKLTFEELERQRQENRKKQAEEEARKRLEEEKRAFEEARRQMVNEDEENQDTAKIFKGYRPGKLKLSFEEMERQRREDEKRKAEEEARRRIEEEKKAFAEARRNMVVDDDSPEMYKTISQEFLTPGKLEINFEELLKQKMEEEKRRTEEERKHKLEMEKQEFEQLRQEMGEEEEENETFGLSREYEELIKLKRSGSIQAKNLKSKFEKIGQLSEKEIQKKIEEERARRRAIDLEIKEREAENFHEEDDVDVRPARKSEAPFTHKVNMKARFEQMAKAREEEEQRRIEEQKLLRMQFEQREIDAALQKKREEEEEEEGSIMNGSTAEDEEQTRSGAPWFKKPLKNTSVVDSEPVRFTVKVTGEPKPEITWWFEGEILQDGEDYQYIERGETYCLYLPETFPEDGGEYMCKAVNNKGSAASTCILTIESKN
T19 sequence (P16083 whole entry): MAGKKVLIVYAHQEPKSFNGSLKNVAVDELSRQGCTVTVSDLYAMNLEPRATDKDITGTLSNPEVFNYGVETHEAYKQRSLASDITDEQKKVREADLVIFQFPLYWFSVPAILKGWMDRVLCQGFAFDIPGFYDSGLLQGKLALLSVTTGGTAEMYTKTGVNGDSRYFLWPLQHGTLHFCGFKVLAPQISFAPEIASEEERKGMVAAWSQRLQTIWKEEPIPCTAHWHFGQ
T10 sequence (Q69YQ0 whole entry): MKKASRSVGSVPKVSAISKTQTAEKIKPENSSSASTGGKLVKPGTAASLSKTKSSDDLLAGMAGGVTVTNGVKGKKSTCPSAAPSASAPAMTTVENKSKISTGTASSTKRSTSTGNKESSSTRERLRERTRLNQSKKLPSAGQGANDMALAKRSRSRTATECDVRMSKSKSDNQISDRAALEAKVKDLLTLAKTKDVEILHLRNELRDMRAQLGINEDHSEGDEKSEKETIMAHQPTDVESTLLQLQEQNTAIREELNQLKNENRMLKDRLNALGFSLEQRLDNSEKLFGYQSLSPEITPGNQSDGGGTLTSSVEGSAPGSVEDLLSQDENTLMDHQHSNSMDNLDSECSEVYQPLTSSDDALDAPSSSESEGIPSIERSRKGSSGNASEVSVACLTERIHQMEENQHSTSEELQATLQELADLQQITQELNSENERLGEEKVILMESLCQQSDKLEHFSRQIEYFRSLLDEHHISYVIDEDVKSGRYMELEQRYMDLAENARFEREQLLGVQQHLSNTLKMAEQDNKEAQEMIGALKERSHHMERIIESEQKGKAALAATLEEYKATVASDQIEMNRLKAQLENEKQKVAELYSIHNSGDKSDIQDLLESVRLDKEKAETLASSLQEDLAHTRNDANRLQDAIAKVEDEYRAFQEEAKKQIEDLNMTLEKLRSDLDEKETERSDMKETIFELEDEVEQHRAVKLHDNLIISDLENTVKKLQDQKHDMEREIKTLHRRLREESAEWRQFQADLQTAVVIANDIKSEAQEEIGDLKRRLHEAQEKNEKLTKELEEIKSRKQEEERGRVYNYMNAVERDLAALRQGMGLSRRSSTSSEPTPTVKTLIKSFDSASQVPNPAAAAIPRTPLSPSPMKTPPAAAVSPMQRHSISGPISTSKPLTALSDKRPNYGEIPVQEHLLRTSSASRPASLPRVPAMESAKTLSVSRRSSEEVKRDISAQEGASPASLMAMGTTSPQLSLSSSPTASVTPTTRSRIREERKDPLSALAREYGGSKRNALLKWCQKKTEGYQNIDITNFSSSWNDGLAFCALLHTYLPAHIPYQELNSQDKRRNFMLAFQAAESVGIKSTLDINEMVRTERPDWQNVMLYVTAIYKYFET
T7 sequence (Q13418 whole entry): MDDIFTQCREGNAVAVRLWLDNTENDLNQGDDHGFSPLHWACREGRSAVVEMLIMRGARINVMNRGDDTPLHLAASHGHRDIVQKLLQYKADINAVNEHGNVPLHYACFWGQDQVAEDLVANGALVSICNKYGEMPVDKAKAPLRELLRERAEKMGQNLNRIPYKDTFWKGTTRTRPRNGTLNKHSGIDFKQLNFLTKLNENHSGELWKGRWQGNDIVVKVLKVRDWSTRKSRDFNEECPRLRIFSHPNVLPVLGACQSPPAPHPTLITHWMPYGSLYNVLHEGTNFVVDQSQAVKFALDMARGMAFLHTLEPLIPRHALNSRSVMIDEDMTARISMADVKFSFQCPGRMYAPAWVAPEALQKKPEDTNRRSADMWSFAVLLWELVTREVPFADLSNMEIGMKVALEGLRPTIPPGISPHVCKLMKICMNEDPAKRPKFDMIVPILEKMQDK

Compound | Average LFQ intensity [1] | Average LFQ intensity [2] | Average LFQ intensity [3] | Average LFQ PON_WT [4] | Average LFQ PON_WT [5] | Average LFQ PON_WT [6] | Average LFQ PON_WT [7] | Average LFQ PON_WT [8] | Average LFQ PON_WT [9] | Average LFQ PON_WT [10] | Average LFQ PON_WT [11] | Average LFQ PON_WT [12] | Average LFQ PON_WT [13] | Average LFQ PON_WT [14] | Average LFQ PON_WT [15] | Average LFQ PON_WT [16] | Average LFQ PON_WT [17] | Average LFQ PON_WT [18] | Average LFQ PON_WT [19]
Cc1ccc(C(=O)Nc2ccc(CN3CCN(CCCN)CC3)c(C(F)(F)F)c2)cc1C#Cc1cnc2cccnn12 [c-ponatinib, reference compound] | 23.049 | 21.7826 | 21.804 |  |  |  |  |  |  |  |  |  |  |  |  |  |  |  | 
Cc1ccc(C(=O)Nc2ccc(CN3CCN(C)CC3)c(C(F)(F)F)c2)cc1C#Cc1cnc2cccnn12 [PON] |  |  |  | 23.9511 | 19.4979 | 26.3342 | 21.0026 | 27.3228 | 20.2843 | 20.8707 | 24.4833 | 24.6531 | 23.2218 | 21.4936 | 18.8692 | 21.6239 | 21.0941 | 25.3656 | 24.6177
